Key:
[1] = test system: Mouse astrocytes; assay: Astrosphere assay; format: cell-based
Protocol: Mouse astrocytes were treated with conditioned media from BrM cell lines or with recombinant mouse protein including Egf (0.01 µg/ml, R&D Systems, ref. 2028-EG- 200), Mif (0.1 µg/ml, R&D Systems, ref. 1978-MF-0257CF) and Tgfα (0.1 µg/ml, R&D Systems, ref. 239-A-100) during 96 hours. After this treatment 10^4 astrocytes were seeded in low attachment plates and incubated for seven days in the presence of the same media to evaluate the ability to form astrospheres. Conditioned media from BrM cell lines were obtained after 3 days incubation of cancer cells in DMEM supplemented with 0.25 % FBS, 2 mM L-Glutamine, 100 IU/ml penicillin/streptomycin and […] amphotericin B. After being collected, the media was filtered and added to astrocytes. Conditioned media from astrospheres was collected, filtered and added to activated CD8 cells (Fig. 7P) or wild type brain slices (Fig. 7T).

[2] = test system: B16/F10-BrM; assay: Tamoxifen-induced Stat3 depletion in reactive astrocytes of cKO-Stat3 mice inoculated with B16/F10-BrM; format: in vivo
Text: (§1) To test the functional contribution of pStat3+ RA in brain metastasis we generated GFAP-Cre/ERT2;Stat3loxP/loxP (cKO-Stat3) mice in which syngeneic brain metastatic (BrM) cells, labeled with Luciferase and Gfp (Green fluorescent protein), were intracardiacally inoculated. We used two BrM models including lung adenocarcinoma model (482N1) and melanoma model (B16/F10-BrM). […] In order to analyze the effect of Stat3 deletion in RA once brain metastases have developed, and given the limited time available in vivo before mice reach the humane endpoint, we cultured ex vivo cKO-Stat3 brain slices containing 2 weeks old lesions grown in mice (Fig. 4A).
All animal experiments were performed in accordance with a protocol approved by the CNIO, Instituto de Salud Carlos III and Comunidad de Madrid Institutional Animal Care and Use Committee. Athymic nu/nu (Harlan), and C57BL/6 mice 4-6 weeks of age were used. cKO-Stat3 was generated by breeding GFAP-CRE/ERT2 (B6.Cg- Tg(GFAP-cre/ERT2)505Fmv/J, Jackson Labs, ref. 012849) with Stat3loxP/loxP16.
Brain metastatic derivative of a syngeneic B16/F10 model (B16/F10-BrM) was established according to a previous protocol (Bos, P. D. et al. Nature 459, 1005-1009 (2009); Nguyen, D. X. et al. Cell 138, 51-62 (2009)). Brain colonization assays were performed injecting 100 µl of PBS into the left ventricle containing 100,000 cancer cells. Brain colonization was analyzed in vivo and ex vivo by bioluminescence imaging. Anesthetized mice (Isofluorane) were injected retro-orbitally with D-Luciferin (150 mg/kg) and imaged with an IVIS Spectrum Xenogen machine (Caliper Life Sciences). Bioluminescence analysis was performed using Living Image software, version 3. […] Silibinin in the formula of Legasil® was administered by oral gavage daily the same day cancer cells were inoculated (200mg/kg) and until mice reached the endpoint of the experiment.

[3] = test system: 482N1; assay: cKO-Stat3 brain slice cultures with established metastases treated with 4OH-Tamoxifen (BLI); format: cell-based, mouse; details: 4OH-Tamoxifen 1 µM; n≥ 4 brain slices per condition, P=0.013
Text: as §1, with “(B16/F10-BrM). These syngeneic models have gained brain tropism while retaining an aggressive extracranial metastatic potential (Valiente, M. et al. Cell 156, 1002-1016 (2014) and also as disclosed herein). […] We confirmed Stat3 depletion from RA under these experimental conditions (Fig.2).” for “(B16/F10-BrM).”, “4A). […]” for “4A).”
(§2) Treatments to brain slices were given once during the experiment (4OH-Tmx, 1 µM, Sigma-Aldrich, ref. H7904; WP1066, 10 µM, Merck, ref. 573097; Doxycycline, 1 µg/ml, Sigma-Aldrich, ref. D9891; silibinin, 100 µM, Sigma-Aldrich, ref. S0417) by adding them to the media. […] Analysis of the knockdown level in H2030-BrM (Fig. 4F) was analyzed in a homogenate containing the mouse brain tissue and human cancer cells. […]

[4] = test system: B16/F10-BrM; assay: as above; format: cell-based, mouse; details: 4OH-Tamoxifen 1 µM; n≥ 8 brain slices per condition, P=0.012
Text: as §1, with “(B16/F10-BrM). These syngeneic models have gained brain tropism while retaining an aggressive extracranial metastatic potential (Valiente, M. et al. Cell 156, 1002-1016 (2014) and also as disclosed herein). […] We confirmed Stat3 depletion from RA under these experimental conditions (Fig.2).” for “(B16/F10-BrM).”, “4A). […]” for “4A).”
as §2

[5] = Tamoxifen treated cKO-Stat3 mice, n=7 metastases

C[C@H](NC(=O)/C(C#N)=C/c1cccc(Br)n1)c1ccccc1 [WP1066]
formation of astrospheres ([1]; primary astrocytes in the presence of the cytokine cocktail (Egf, Tgfα, Mif)): impairs the formation of astrospheres

CC/C(=C(\c1ccccc1)c1ccc(OCCN(C)C)cc1)c1ccccc1 [Tamoxifen]
metastases of Score 0 (no pStat3 signal) in the surrounding microenvironment ([2]; Tamoxifen treated cKO-Stat3 mice): 66.7%
metastases of Score 1 (low pStat3 signal) in the surrounding microenvironment [2, 5]: 22.2%
metastases of Score 2 (high pStat3 signal) in the surrounding microenvironment [2, 5]: 11.1%
CD74+/Iba1+ cells infiltrating metastasis ([2]; cKO-Stat3 brains treated with tamoxifen): less CD74+/lba1+ cells infiltrating metastasis

CC/C(=C(\c1ccc(O)cc1)c1ccc(OCCN(C)C)cc1)c1ccccc1 [4OH-Tamoxifen]
formation of astrospheres ([1]; cKO-Stat3 derived astrocytes induced by the cytokine cocktail, 4OH-Tamoxifen 1µM): unable to generate astrospheres
growth of established metastases scored with BLI [3]: impaired the growth of established metastases
growth of established metastases scored with BLI [4]: impaired the growth of established metastases

— patent EP3501511A1, “MEANS FOR PREVENTING AND TREATING BRAIN METASTASIS” (Fundación Centro Nacional De Investigaciones Oncológicas …, priority 2017, dated 2019)
